Results published in US12024504B2, “1-methyl-1H-pyrazol-3-yl derivatives for use in the treatment of neovascular diseases” (EXONATE LIMITED, priority 2021, dated 2024).
Converted amounts (≈) assume the structure as drawn. Values belong to the molecule of their own block, whether it stands above or below them.

What was measured:
[1] = Porcine scleral permeability (modified Ussing chamber); assay type: in vitro ADME; details: for Papp at 24 h, 10 μg/mL: pig, pH 7.4, porcine excised eye tissue, 10 μg/mL compound on donor side
Method: Scleral permeability was measured using a modified Ussing chamber assembly in the initial eye drop formulation containing 1% hydroxypropyl methyl cellulose, 0.2% tyloxapol, 3.4% dextrose, 0.006% benzalkonium chloride, and 0.025% ethylenediaminetetraacetic acid with 1% DMSO in PBS (pH 7.4). Porcine excised eye tissues were mounted in the chambers such that the episcleral side faced the donor chamber and the retinal side faced the receiver chamber. The chambers were filled with equal volumes of eye drop formulation, with (donor side) or without (receiver side) 10 μg/mL compound. After 24 hours tissue was removed from the chamber and the receiver side (“vitreous”) sampled. Tissue was dissected into sclera, choroid/RPE, and retina and homogenised. A tracer (SPHINX7; WO 2015/159103) was added, and tissue extracted by acetonitrile extraction as described in Batson et al (2017). Compounds were then analysed by mass spectrometry as described in Batson et al (2017).
To determine whether compounds could get across the sclera of a larger animal, porcine sclera was clamped between two chambers and compounds were added to the sclera with eye drop formulation added to the bottom chamber and compounds added to the top chamber. After 24 hours, the fluid from the bottom chamber (vitreous) and the retinal tissue was isolated and compounds purified by methanol or acetonitrile extraction and HPLC.

[2] = Solubility in eye drop formulation; assay type: physicochemical; details: aqueous with cosolvent or surfactant or cyclodextrin; initial eye drop formulation (1% HPMC, 0.2% tyloxapol, 3.4% dextrose, 1% DMSO in PBS); read-out: Maximum limit of solubility
[3] = target: T1, SRPK1 (Homo sapiens, UniProt Q96SB4); experiment: In vitro kinase assay (radioactive filter binding, 33P ATP); assay type: biochemical
T1 construct: purchased MRC Dundee Kinase Centre (external assay service)
T1 sequence (Q96SB4 whole entry): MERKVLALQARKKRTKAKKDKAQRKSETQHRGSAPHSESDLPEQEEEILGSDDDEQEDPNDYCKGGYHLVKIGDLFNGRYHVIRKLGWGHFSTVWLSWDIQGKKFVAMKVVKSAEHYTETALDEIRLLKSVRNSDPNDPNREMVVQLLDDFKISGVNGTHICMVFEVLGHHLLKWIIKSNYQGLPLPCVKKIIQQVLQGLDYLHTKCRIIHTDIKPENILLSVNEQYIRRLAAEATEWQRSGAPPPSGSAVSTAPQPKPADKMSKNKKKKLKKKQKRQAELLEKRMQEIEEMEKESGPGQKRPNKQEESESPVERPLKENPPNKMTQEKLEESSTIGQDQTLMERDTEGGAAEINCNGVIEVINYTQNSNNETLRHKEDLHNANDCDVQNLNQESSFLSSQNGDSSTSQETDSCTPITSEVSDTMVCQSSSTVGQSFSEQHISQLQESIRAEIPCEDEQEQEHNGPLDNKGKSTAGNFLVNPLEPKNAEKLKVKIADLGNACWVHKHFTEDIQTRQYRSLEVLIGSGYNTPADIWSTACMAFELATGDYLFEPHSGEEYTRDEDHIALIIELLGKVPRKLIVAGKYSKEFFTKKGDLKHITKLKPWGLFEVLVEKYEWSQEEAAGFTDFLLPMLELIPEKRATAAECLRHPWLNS
Method: Kinase assays were carried out by the MRC Dundee Kinase Centre using a radioactive filter binding assay using ^33P ATP (Hastie, et al 2006. Nat Protoc. 2006; 1(2):968-71; Bain, et al 2007. Biochem J. 2007 Dec. 15; 408(3):297-315).

[4] = test system: VEGF165b and VEGF165; details: cited from earlier work
[5] = test system: choroidal neovascularisation; details: mouse models of choroidal neovascularisation, previously shown; cited from earlier work
[6] = 0.5 mg monthly, at one year; cited from earlier work

Permeability across porcine sclera (in words) ([1]; 24 hours, FIG. 1): considerably lower permeability
Molecule: O=C(Nc1cc(C(F)(F)F)ccc1N1CCN(Cc2cc[nH]n2)CC1)c1ccc(C2CCOCC2)o1 [Compound R, N-(2-(4-((1H-pyrazol-3-yl)methyl)piperazin-1-yl)-5-(trifluoromethyl)-phenyl)-5-(tetrahydro-2H-pyran-4-yl)furan-2-carboxamide, reference compound]

solubility [2]: 80 µg/mL (≈ 183 µM)
Molecule: Cc1ccc(Nc2nccc(N(C)c3ccc4c(C)n(C)nc4c3)n2)cc1S(N)(=O)=O [pazopanib]

Papp at 24 h, 10 μg/mL [1]: 0.0442 ×10⁻⁶ cm/s
IC50 [3]: 10 nM
Molecule: Cn1ccc(CN2CCCN(c3ccc(C(F)(F)F)cc3NC(=O)c3ccc(C4CCOCC4)o3)CC2)n1 [Compound 2, N-(2-(4-((1-methyl-1H-pyrazol-3-yl)methyl)-1,4-diazepan-1-yl)-5-(trifluoromethyl)phenyl)-5-(tetrahydro-2H-pyran-4-yl)furan-2-carboxamide]

Molecule: bevicizumab: an anti-VEGF antibody from which Lucentis was derived
Binding of VEGF165b relative to VEGF165 [4]: equal potency

Molecule: O=C(Nc1cc(C(F)(F)F)ccc1N1CCN(Cc2ccccn2)CC1)c1ccc(-c2ccncc2)o1 [SPHINX31]
Eye drop concentration of maximum effect [5]: 2 µg/mL

Papp at 24 h, 10 μg/mL [1]: 0.0675 ×10⁻⁶ cm/s
IC50 [3]: 35 nM
melting point: 148 to 150 °C
Molecule: Cn1ccc(CN2CCCN(c3ccc(Cl)cc3NC(=O)c3ccc(C4CCOCC4)o3)CC2)n1 [Compound 3, N-(5-chloro-2-(4-((1-methyl-1H-pyrazol-3-yl)methyl)-1,4-diazepan-1-yl)phenyl)-5-(tetrahydro-2H-pyran-4-yl)furan-2-carboxamide]

B1: Lucentis: a novel humanized anti-VEGF antibody fragment (antibody, chains of the INN, looked up, V domains shown)
VH: EVQLVESGGGLVQPGGSLRLSCAASGYDFTHYGMNWVRQAPGKGLEWVGWINTYTGEPTYAADFKRRFTFSLDTSKSTAYLQMNSLRAEDTAVYYCAKYPYYYGTSHWYFDVWGQGTLVTVSS
VL: DIQLTQSPSSLSASVGDRVTITCSASQDISNYLNWYQQKPGKAPKVLIYFTSSLHSGVPSRFSGSGSGTDFTLTISSLQPEDFATYYCQQYSTVPWTFGQGTKVEIK
modifications: Fab
notes: a novel humanized anti-VEGF antibody fragment
Patients who maintained visual acuity (loss of <15 letters) [6]: approximately 95%
Patients with improved vision (gain of ≥15 letters) [6]: ≤ 40%
